According to publication PMC11496352, “Synthesis of Novel Plant-Derived Encapsulated Radiolabeled Compounds for the Diagnosis of Parkinson’s Disease and the Evaluation of Biological Effects with In Vitro/In Vivo Methods” (Molecular Neurobiology, 2024):

What was measured:
SH-SY5Y cell line = test: Cytotoxicity study (WST) on SH-SY5Y cells; format: cell-based; settings: Homo sapiens
Protocol: (§1) SY-SH5Y and PC-12 cell lines were used in in vitro cell culture studies. SH-SY5Y cells in a medium consisting of minimum Essential Medium (Eagle) and 10% fetal bovine serum (FBS); PC-12 cells were produced in a medium consisting of RPMI 1640 medium, 10% horse serum, and 5% fetal bovine serum (FBS). All cells were incubated in 5% CO2 and 37 °C. Fresh medium was added by changing the medium every 2 days. After the cells were produced enough to cover 80% of the flasks, they were separated from the flask by means of a 0.25% (W / V) trypsin–EDTA solution and plated in 24-well plates for incorporation studies and 96-well plates for cytotoxicity studies and study groups were formed.
(§2) Cells were prepared from SY-SH5Y and PC-12 cell suspensions at 5 × 10^4 cells / mL in each well of 96-well plates. One hundred microliters of cell suspension was added to each well-formed and the solution containing MA prepared with sterile SF at five different (10^0, 10^–1, 10^–2, 10^–3, 10^–4 nM) concentrations was added to the wells outside the control. As a negative control, media without cells and reagents were used. In the study, each parameter was studied in triplicate. The plate containing the cells was incubated at 37 °C in 5% CO2. SH-SY5Y cells were incubated at 24, 48, and 72 h of incubation by adding 10 μl of WST solution to each well and incubating for another 4 h. On other hand, MTT solution was added to PC-12 cells and incubated for 4 more hours. At the end of the incubation, the MTT solution on the cells was removed and 200 µL DMSO was added to the PC-12 cells. All cells were read using a spectrophotometer, at 450 nm wavelength and 690 nm reference range, for the absorbance value of each well. Negative control was accepted as zero absorbance and % viability values were calculated with the formula [(measured absorbance value/control value) × 100] and the same procedures were repeated for the MA-L-DOPA compound.

PC-12 cell line = test: Cytotoxicity study (MTT) on PC-12 cells; format: cell-based; settings: Rattus norvegicus
Protocol: as §1, §2

[1] = set-up: method as in PMID 27992940; settings: rats; cited from earlier work

Compound	IC50 (SH-SY5Y cell line; 24 hour) [µM]	IC50 (SH-SY5Y cell line; 48 hour) [µM]	IC50 (SH-SY5Y cell line; 72 hour) [µM]	IC50 (PC-12 cell line; PC-12, 24 hour) [µM]	IC50 (PC-12 cell line; PC-12, 48 hour) [µM]	IC50 (PC-12 cell line; PC-12, 72 hour) [µM]	time within which uptake in the brain tissue occurs [1] [h]
C[C@H]1[C@H](C)CC[C@]2(C(=O)O[C@@H]3O[C@H](CO[C@@H]4O[C@H](CO)[C@@H](O[C@@H]5O[C@@H](C)[C@H](O)[C@@H](O)[C@H]5O)[C@H](O)[C@H]4O)[C@@H](O)[C@H](O)[C@H]3O)CC[C@]3(C)C(=CC[C@@H]4[C@@]5(C)C[C@@H](O)[C@H](O)[C@@](C)(CO)[C@@H]5[C@H](O)C[C@]43C)[C@H]12 [MA, Madecassoside]	12.9 ± 2.14	12.8 ± 2.24	7.45 ± 1.14	12.8 ± 2.21	12.6 ± 2.41	8.54 ± 1.37	≤ 1
CC1CCC2(C(=O)OC3OC(COC4OC(CO)C(OC5OC(C)C(O)C(OC(=O)C(N)Cc6ccc(O)c(O)c6)C5O)C(O)C4O)C(O)C(O)C3O)CCC3(C)C(=CCC4C5(C)CC(O)C(O)C(C)(CO)C5C(O)CC43C)C2C1C [MA-L-DOPA]	12.9 ± 2.09	10.1 ± 2.08	7.16 ± 1.11	12.5 ± 2.21	10 ± 2.06	6.93 ± 1.09	–
